We go through 13 molecules from ChEMBL document CHEMBL1201862, “PubChem BioAssay data set” (2004).

Among the test systems are MCF7; MDA-N; HOP-62; T47D; NCI-H460; A549; CCRF-CEM; IGROV-1; SF-268; UO-31; HT-29; SK-MEL-28; Malme-3M; M14; MDA-MB-435; A498; Hs-578T; ACHN; PC-3; LXFL 529.
Holding throughout (assay): NCI-60 cell line screen, 48 h

Each structure is given as a SMILES string.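 Interpolation was linear, between the two tested concentrations surrounding the appropriate level; five concentrations were tested over 48 hours in 96-well plates. GI50 marks 50% less growth.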 Activity calls are given as the source filed them. No stated cut-off is given here; in the data, active = GI50 up to about 1.1 µM and inactive = higher.

As for `Fc1cc(C2=C[C@H](c3ccc(Cl)cc3)NC(=S)N2)c(Cl)cc1Cl`, the GI50 in the assay on MCF7 is 31.2 µM (inactive); with MDA-N, 47.4 µM (inactive); in the assay with HOP-62, 48.2 µM (inactive); with T47D, 19.2 µM (inactive); with NCI-H460, 34 µM (inactive); with A549 it was 47.3 µM (inactive). Also, the GI50 in the assay on CCRF-CEM was 28.9 µM (inactive); in the assay on IGROV-1, 41.2 µM (inactive); in the assay on SF-268, 65.8 µM (inactive); in the assay on UO-31, 42.2 µM (inactive); with HT-29 it was 36.5 µM (inactive); in the assay on SK-MEL-28, > 100 µM (inactive). Besides, the GI50 is > 100 µM (inactive) with Malme-3M; 54.3 µM (inactive) in the assay with M14; 43.9 µM (inactive) in the assay with MDA-MB-435; 27.7 µM (inactive) in the assay on A498; > 100 µM (inactive) in the assay on Hs-578T; 37.8 µM (inactive) in the assay on ACHN. In addition, in the assay on PC-3, the GI50 was 28.3 µM (inactive).
In the case of `O=C(CO)CC(=O)C(=O)Nc1ccccc1`, the GI50 in the assay on HOP-62, in the assay on LXFL 529, with NCI-H460, with A549, with CCRF-CEM and in the assay with IGROV-1 was > 100 µM (inactive) throughout. The GI50 in the assay with SF-268, in the assay with UO-31, in the assay with HT-29, with SK-MEL-28, in the assay with Malme-3M and with M14 was > 100 µM (inactive) in each case. The GI50 in the assay on ACHN was > 100 µM (inactive).
On to `O=C1CSC(c2cccs2)N1c1nc2cc3sc(N4C(=O)CSC4c4cccs4)nc3cc2s1` (stereo not drawn), for which the GI50 was 15.9 µM (inactive) in the assay with MCF7; > 50 µM (inactive) in the assay with MDA-N; > 50 µM (inactive) in the assay with HOP-62; > 50 µM (inactive) in the assay on T47D; 3.04 µM (inactive) in the assay with NCI-H460; 4.23 µM (inactive) with A549. Also, the GI50 in the assay with CCRF-CEM is 25.2 µM (inactive); in the assay with IGROV-1 it was 32.3 µM (inactive); with SF-268 it was > 50 µM (inactive); in the assay with UO-31 it was 30.9 µM (inactive); in the assay with HT-29 it was 11.9 µM (inactive); in the assay with SK-MEL-28, > 50 µM (inactive). Besides, the GI50 in the assay with Malme-3M, in the assay with M14, with MDA-MB-435, in the assay on A498, in the assay with Hs-578T and with ACHN was > 50 µM (inactive) throughout. The GI50 with PC-3 is 47.9 µM (inactive).
For the molecule `O=c1nc(N2CCNCC2)oc2cc(Cl)oc(=O)c12`, the GI50 in the assay on MCF7 was 3.98 µM (inactive); with MDA-N it was 2.2 µM (inactive); in the assay on HOP-62 it was 4.69 µM (inactive); with T47D, 2.79 µM (inactive); with NCI-H460 it was 6.98 µM (inactive); with A549 it was 7.52 µM (inactive). The GI50 in the assay on CCRF-CEM is 1.83 µM (inactive); with IGROV-1, 2.7 µM (inactive); in the assay on SF-268, 3.89 µM (inactive); in the assay on UO-31, 7.67 µM (inactive); with HT-29, 3.91 µM (inactive); with SK-MEL-28, 3.13 µM (inactive). Also, the GI50 in the assay with Malme-3M is 3.93 µM (inactive); with M14, 2.45 µM (inactive); in the assay with MDA-MB-435 it was 4.44 µM (inactive); in the assay with A498, 20.8 µM (inactive); in the assay on Hs-578T, 1.94 µM (inactive); in the assay on ACHN it was 6.87 µM (inactive). For the same molecule, the GI50 with PC-3 was 6.49 µM (inactive).
As for `Brc1ccc(-c2nnc(-c3nn(-c4ccccc4)c4nc5ccccc5nc34)o2)cc1`, the GI50 in the assay on HOP-62 is > 100 µM (inactive); with LXFL 529, 31.5 µM (inactive); with NCI-H460, > 100 µM (inactive); with A549, 96.4 µM (inactive); in the assay with CCRF-CEM, 26.1 µM (inactive); in the assay on IGROV-1, > 100 µM (inactive). The GI50 with SF-268, in the assay with UO-31, with HT-29, in the assay on SK-MEL-28, in the assay with M14 and in the assay on ACHN was > 100 µM (inactive) each time.
For the molecule `Cc1nnc(N/N=C(/C(=O)C(C#N)c2ccc(Cl)cc2)C(C#N)c2ccc(Cl)cc2)n1N` (stereo not drawn), the GI50 is 16.6 µM (inactive) in the assay with HOP-62; 13.4 µM (inactive) in the assay with LXFL 529; 18.6 µM (inactive) in the assay with NCI-H460; 20.1 µM (inactive) in the assay on A549; 35.6 µM (inactive) in the assay with CCRF-CEM; 24.1 µM (inactive) in the assay on SF-268. Besides, the GI50 was 17.7 µM (inactive) in the assay with UO-31; 20.4 µM (inactive) with HT-29; 18.7 µM (inactive) with SK-MEL-28; 19.4 µM (inactive) in the assay with Malme-3M; 20.7 µM (inactive) in the assay with M14; 15.9 µM (inactive) with ACHN.
Turning to `C=C[C@@]1(C)CC(=O)[C@]2(O)[C@@]3(C)[C@@H](O)CCC(C)(C)[C@@H]3[C@H](O)[C@@H](OC(C)=O)[C@@]2(C)O1`, the GI50 with MCF7 was 22.1 µM (inactive); in the assay on MDA-N it was > 100 µM (inactive); in the assay on HOP-62, > 100 µM (inactive); in the assay with T47D it was 54.5 µM (inactive); in the assay with NCI-H460, > 100 µM (inactive); in the assay on A549, > 100 µM (inactive). In addition, the GI50 in the assay on CCRF-CEM was > 100 µM (inactive); in the assay on IGROV-1, > 100 µM (inactive); in the assay on SF-268, > 100 µM (inactive); with UO-31 it was 60.4 µM (inactive); with HT-29 it was 68.7 µM (inactive); in the assay with SK-MEL-28, > 100 µM (inactive). Besides, the GI50 in the assay with Malme-3M was > 100 µM (inactive); with M14, > 100 µM (inactive); in the assay on MDA-MB-435, > 100 µM (inactive); in the assay on A498 it was > 100 µM (inactive); in the assay with Hs-578T, 70.1 µM (inactive); with ACHN it was > 100 µM (inactive). For the same molecule, the GI50 in the assay with PC-3 was > 100 µM (inactive).
For `O=C(CCC(=O)Nc1ccc(Cl)c(Cl)c1)CC(=O)c1ccc(F)cc1`, the GI50 in the assay on HOP-62, in the assay on LXFL 529, with NCI-H460, in the assay with A549, with CCRF-CEM and with IGROV-1 was > 100 µM (inactive) in each case. Besides, the GI50 in the assay with SF-268, in the assay with UO-31, with HT-29, in the assay with SK-MEL-28, with Malme-3M and in the assay on M14 was > 100 µM (inactive) each time. Besides, in the assay on ACHN, the GI50 is > 100 µM (inactive).
As to `O=Cc1ccc(OCc2cccc(COc3ccc(/C=N\Nc4ccc([N+](=O)[O-])cc4[N+](=O)[O-])cc3)n2)cc1`, the GI50 with MCF7 is > 100 µM (inactive); in the assay with MDA-N, > 100 µM (inactive); in the assay on HOP-62, 19.6 µM (inactive); with T47D, > 100 µM (inactive); in the assay with NCI-H460, > 100 µM (inactive); in the assay with A549, > 100 µM (inactive). Moreover, the GI50 with CCRF-CEM is 55.1 µM (inactive); with IGROV-1, > 100 µM (inactive); in the assay on SF-268, > 100 µM (inactive); in the assay with UO-31 it was > 100 µM (inactive); in the assay with HT-29, > 100 µM (inactive); in the assay with SK-MEL-28, > 100 µM (inactive). The GI50 in the assay on Malme-3M, in the assay on M14, in the assay with MDA-MB-435, in the assay with A498, in the assay on Hs-578T and in the assay on ACHN was > 100 µM (inactive) in each case. In addition, in the assay on PC-3, the GI50 was > 100 µM (inactive).
`COc1ccc(/C=C/CO)cc1OC`: the GI50 in the assay on LXFL 529, with A549, in the assay on IGROV-1, with SF-268, in the assay on UO-31 and with HT-29 was > 100 µM (inactive) throughout. In addition, the GI50 in the assay with SK-MEL-28, with Malme-3M and in the assay with ACHN was > 100 µM (inactive) in each case.
For the molecule `C=C1C2C[C@@H]3OC4CC5O[C@]6(CC5OC4C(C)C3OC(=O)CC3CC[C@@H]4OC5C7OC8C[C@](CCC9CC(=C)[C@H](CCC(C[C@H]1C)O2)O9)(OC7C4O3)O[C@@H]85)C[C@@H]1O[C@@]2(CC(C)[C@@H]3OC(CC(=O)CCO)C(O)C[C@@H]3O2)CC(C)[C@@H]1O6` (stereo partly drawn), the GI50 in the assay on HOP-62, with LXFL 529, with NCI-H460, with A549, in the assay on CCRF-CEM and in the assay with IGROV-1 was < 0.001 µM (active) throughout. For the same molecule, the GI50 in the assay with SF-268, with UO-31, in the assay on Malme-3M, in the assay with M14 and in the assay on ACHN was < 0.001 µM (active) each time.
With `NCCOCCOCC(=O)O`, the GI50 in the assay with LXFL 529, with A549, with IGROV-1, in the assay with SF-268, in the assay with UO-31 and with HT-29 was > 100 µM (inactive) each time. In addition, the GI50 with SK-MEL-28, in the assay with Malme-3M and with ACHN was > 100 µM (inactive) in each case.
Turning to `CC(C)CC(N)C(=O)O` (stereo not drawn), the GI50 with MCF7, with MDA-N, with HOP-62, in the assay with T47D, in the assay with NCI-H460 and with A549 was > 100 µM (inactive) in each case. Further, the GI50 in the assay with CCRF-CEM, with IGROV-1, in the assay with SF-268, with UO-31, in the assay with HT-29 and in the assay on SK-MEL-28 was > 100 µM (inactive) throughout. Moreover, the GI50 with Malme-3M, in the assay on M14, with MDA-MB-435, with A498, in the assay with Hs-578T and with ACHN was > 100 µM (inactive) in each case. Also, the GI50 in the assay with PC-3 is > 100 µM (inactive).
